Among the data in patent US9630965B2, “Fused amino pyridine as HSP90 inhibitors” (Curis, Inc., priority 2007, dated 2017) are IC50 values, retold here.

The structures appear in SMILES notation. Where only a bound is given, the exact number is not on record here.

For this assay, the target named is HSP90 (Homo sapiens (Human), UniProt P07900). Put plainly: HSP90 competition binding (fluorescence polarization) assay with FITC labeled GM. To be noted: 24 hours of incubation at 4° C. The text has this:
(b) HSP90 Competition Binding (Fluorescence Polarization) Assay.
A fluorescein isothiocyanate (FITC) labeled GM was purchase from InvivoGen (ant-fgl-1). The interaction between HSP90 and labeled GM forms the basis for the fluorescence polarization assay. A free and fast-tumbling FITC labeled GM emits random light with respect to the plane of polarization plane of excited light, resulting in a lower polarization degree (mP) value. When GM is bound to HSP90, the complex tumble slower and the emitted light is polarized, resulting in a higher mP value. […] The assay buffer contained 20 mM HEPES (pH 7.3), 50 mM KCl, 1 mM DTT, 50 mM MgCl2, 20 mM Na2MoO4, 0.01% NP40 with 0.1 mg/ml bovine gamma-globulin.
Background: Polarisation of emitted light reports the rotation of a fluorescent probe.
The term IC50 denotes the concentration that gives 50% inhibition. The low end stands for greater potency, the high end for weaker potency. Compound `CCCCCn1c(Sc2cc3c(cc2I)OCO3)nc2c(N)nccc21` [Compound 4, 2-(6-iodobenzo[d][1,3]dioxol-5-ylthio)-1-pentyl-1H-imidazo[4,5-c]pyridin-4-amine] displayed an IC50 of 0.1 to 1 µM.
The result for `C#CCCCn1c(Sc2cc3c(cc2I)OCCO3)nc2c(N)nccc21` [Compound 7, 2-(7-iodo-2,3-dihydrobenzo[b][1,4]dioxin-6-ylthio)-1-(pent-4-ynyl)-1H-imidazo[4,5-c]pyridin-4-amine] reads 0.1 to 1 µM; that for `C#CCCCn1c(Sc2ccc3c(c2)CCO3)nc2c(N)nccc21` [Compound 9, 2-(2,3-dihydrobenzofuran-5-ylthio)-1-(pent-4-ynyl)-1H-imidazo[4,5-c]pyridin-4-amine], > 10 µM.
Consider `C#CCCCn1c(Sc2cc(O)c(O)cc2I)nc2c(N)nccc21` [Compound 16, 4-(4-amino-1-(pent-4-ynyl)-1H-imidazo[4,5-c]pyridin-2-ylthio)-5-iodobenzene-1,2-diol], for which the IC50 is > 10 µM.
The result for `C#CCCCn1c(Sc2cc(OC)ccc2C#N)nc2c(N)nccc21` [Compound 18, 2-(4-amino-1-(pent-4-ynyl)-1H-imidazo[4,5-c]pyridin-2-ylthio)-4-methoxybenzonitrile] reads 1 to 10 µM; that for `C#CCCCn1c(Sc2cc(F)c(F)cc2I)nc2c(N)nccc21` [Compound 21, 2-(4,5-difluoro-2-iodophenylthio)-1-(pent-4-ynyl)-1H-imidazo[4,5-c]pyridin-4-amine], > 10 µM; that for `C#CCCn1c(Sc2cc3c(cc2Br)OCO3)nc2c(N)nccc21` [Compound 22, 2-(6-bromobenzo[d][1,3]dioxol-5-ylthio)-1-(but-3-ynyl)-1H-imidazo[4,5-c]pyridin-4-amine], 1 to 10 µM.
In the case of `C#CCCn1c(Sc2cc3c(cc2I)OCO3)nc2c(N)nccc21` [Compound 23, 1-(but-3-ynyl)-2-(6-iodobenzo[d][1,3]dioxol-5-ylthio)-1H-imidazo[4,5-c]pyridin-4-amine], the IC50 fell in the range of 0.1 to 1 µM.
The result for `C#CCCCCn1c(Sc2cc3c(cc2Br)OCO3)nc2c(N)nccc21` [Compound 24, 2-(6-bromobenzo[d][1,3]dioxol-5-ylthio)-1-(hex-5-ynyl)-1H-imidazo[4,5-c]pyridin-4-amine] reads 1 to 10 µM; that for `C#CCCCCn1c(Sc2cc3c(cc2I)OCO3)nc2c(N)nccc21` [Compound 25, 1-(hex-5-ynyl)-2-(6-iodobenzo[d][1,3]dioxol-5-ylthio)-1H-imidazo[4,5-c]pyridin-4-amine], 0.1 to 1 µM.
With `COc1ccc(I)c(Sc2nc3c(N)nccc3n2CCCC#N)c1` [Compound 26, 4-(4-amino-2-(2-iodo-5-methoxyphenylthio)-1H-imidazo[4,5-c]pyridin-1-yl)butanenitrile], the IC50 lay in the range of 1 to 10 µM.
The compound `N#CCCCn1c(Sc2cc3c(cc2Br)OCO3)nc2c(N)nccc21` [Compound 27, 4-(4-amino-2-(6-bromobenzo[d][1,3]dioxol-5-ylthio)-1H-imidazo[4,5-c]pyridin-1-yl)butanenitrile] displayed an IC50 of 1 to 10 µM.
Under `N#CCCCn1c(Sc2cc3c(cc2I)OCO3)nc2c(N)nccc21` [Compound 28, 4-(4-amino-2-(6-iodobenzo[d][1,3]dioxol-5-ylthio)-1H-imidazo[4,5-c]pyridin-1-yl)butanenitrile] stands 0.1 to 1 µM; under `N#CCCCCn1c(Sc2cc3c(cc2Br)OCO3)nc2c(N)nccc21` [Compound 29, 5-(4-amino-2-(6-bromobenzo[d][1,3]dioxol-5-ylthio)-1H-imidazo[4,5-c]pyridin-1-yl)pentanenitrile], 1 to 10 µM; under `N#CCCCCn1c(Sc2cc3c(cc2I)OCO3)nc2c(N)nccc21` [Compound 30, 5-(4-amino-2-(6-iodobenzo[d][1,3]dioxol-5-ylthio)-1H-imidazo[4,5-c]pyridin-1-yl)pentanenitrile], 0.1 to 1 µM.
For `CC(C)NCCCn1c(Sc2cc3c(cc2Br)OCO3)nc2c(N)nccc21` [Compound 51, 2-(6-bromobenzo[d][1,3]dioxol-5-ylthio)-1-(3-(isopropylamino)propyl)-1H-imidazo[4,5-c]pyridin-4-amine], the IC50 fell in the range of 1 to 10 µM.
The result for `CC(C)NCCCn1c(Sc2cc3c(cc2I)OCO3)nc2c(N)nccc21` [Compound 52, 2-(6-iodobenzo[d][1,3]dioxol-5-ylthio)-1-(3-(isopropylamino)propyl)-1H-imidazo[4,5-c]pyridin-4-amine] reads 0.1 to 1 µM; that for `COc1ccc(Br)c(Sc2nc3c(N)nccc3n2CCCNC(C)C)c1` [Compound 53, 2-(2-bromo-5-methoxyphenylthio)-1-(3-(isopropylamino)propyl)-1H-imidazo[4,5-c]pyridin-4-amine], 1 to 10 µM; that for `COc1ccc(I)c(Sc2nc3c(N)nccc3n2CCCNC(C)C)c1` [Compound 54, 2-(2-iodo-5-methoxyphenylthio)-1-(3-(isopropylamino)propyl)-1H-imidazo[4,5-c]pyridin-4-amine], 1 to 10 µM.
The result for `CC(C)(C)NCCCn1c(Sc2cc3c(cc2I)OCO3)nc2c(N)nccc21` [Compound 58, 1-(3-(tert-butylamino)propyl)-2-(6-iodobenzo[d][1,3]dioxol-5-ylthio)-1H-imidazo[4,5-c]pyridin-4-amine] reads 0.1 to 1 µM; that for `CCC(CC)NCCCn1c(Sc2cc3c(cc2I)OCO3)nc2c(N)nccc21` [Compound 60, 2-(6-iodobenzo[d][1,3]dioxol-5-ylthio)-1-(3-(pentan-3-ylamino)propyl)-1H-imidazo[4,5-c]pyridin-4-amine], 0.1 to 1 µM.
With `CC(C)OCCn1c(Sc2cc3c(cc2Br)OCO3)nc2c(N)nccc21` [Compound 61, 2-(6-bromobenzo[d][1,3]dioxol-5-ylthio)-1-(2-isopropoxyethyl)-1H-imidazo[4,5-c]pyridin-4-amine], the IC50 lay within 0.1 to 1 µM.
The result for `CC(C)OCCn1c(Sc2cc3c(cc2I)OCO3)nc2c(N)nccc21` [Compound 62, 2-(6-iodobenzo[d][1,3]dioxol-5-ylthio)-1-(2-isopropoxyethyl)-1H-imidazo[4,5-c]pyridin-4-amine] reads 0.1 to 1 µM.
Under `COc1ccc(I)c(Sc2nc3c(N)nccc3n2CCOC(C)C)c1` [Compound 64, 2-(2-iodo-5-methoxyphenylthio)-1-(2-isopropoxyethyl)-1H-imidazo[4,5-c]pyridin-4-amine] stands 1 to 10 µM; under `NC(=O)CCCn1c(Sc2cc3c(cc2I)OCO3)nc2c(N)nccc21` [Compound 66, 4-(4-amino-2-(6-iodobenzo[d][1,3]dioxol-5-ylthio)-1H-imidazo[4,5-c]pyridin-1-yl)butanamide], 0.1 to 1 µM; under `NC(=O)CCCCn1c(Sc2cc3c(cc2I)OCO3)nc2c(N)nccc21` [Compound 68, 5-(4-amino-2-(6-iodobenzo[d][1,3]dioxol-5-ylthio)-1H-imidazo[4,5-c]pyridin-1-yl)pentanamide], 0.1 to 1 µM.
Turning to `NC(=O)CCCCCn1c(Sc2cc3c(cc2I)OCO3)nc2c(N)nccc21` [Compound 70, 6-(4-amino-2-(6-iodobenzo[d][1,3]dioxol-5-ylthio)-1H-imidazo[4,5-c]pyridin-1-yl)hexanamide], the IC50 is 0.1 to 1 µM.
In turn, `CC(=O)NCCn1c(Sc2cc3c(cc2I)OCO3)nc2c(N)nccc21` [Compound 72, N-(2-(4-amino-2-(6-iodobenzo[d][1,3]dioxol-5-ylthio)-1H-imidazo[4,5-c]pyridin-1-yl)ethyl)acetamide] registered an IC50 of 0.1 to 1 µM.
